Experimental data published in ChEMBL document CHEMBL1125342, “Condensation of muscimol or thiomuscimol with aminopyridazines yields GABA-A antagonists” (J Med Chem, 1992).
pIC50: −log10 of the molar value.

Key:
[1] = target: GABA-A receptor; anion channel; format: organism-based, Bos taurus, Brain
[2] = target: GABA-A receptor; anion channel; format: functional, tissue-based, Bos taurus, Brain

pIC50 [1]	pIC50 [2]	Compound
7.77	9.12	N=c1ccc(-c2ccc3c(c2)OCO3)nn1Cc1cc(O)ns1
7.12	8.22	N=c1ccc(-c2ccc3c(c2)OCO3)nn1Cc1cc(O)no1
7.30	–	N=c1ccc(-c2ccc3c(c2)OCO3)nn1CCCC(=O)O
5.92	7.10	N=c1ccc(-c2ccc(Cl)cc2)nn1Cc1cc(O)no1
6.82	7.54	N=c1ccc(-c2ccc(Cl)cc2)nn1Cc1cc(O)ns1
6.00	–	Cc1cc(-c2ccccc2)nn(Cc2cc(O)no2)c1=N

Further lines, the compound ahead of its results:

Compound	pIC50 [1]	pIC50 [2]
Cc1cc(-c2ccccc2)c(=N)n(Cc2cc(O)ns2)n1	5.18	6.00
N=c1c2ccccc2c(-c2ccccc2)nn1Cc1cc(O)no1	6.92	6.72
N=c1ccc(-c2ccsc2)nn1CCCC(=O)O	5.63	–
NCc1cc(=O)[nH]o1 [MUSCIMOL]	8.70	6.87
N=c1ccc(-c2ccccc2)nn1CCCC(=O)O	5.92	–
O=C1OC=C2CCCNCC12 (stereo not drawn)	4.25	–
C[C@]12CC(=O)C3C(CC[C@@H]4C[C@H](O)CC[C@]34C)C1CC(=N)N2 (stereo partly drawn)	7.37	8.52
N=c1ccc(-c2ccsc2)nn1Cc1cc(O)no1	5.80	–
N=c1ccc(-c2ccc(Cl)cc2)nn1CCCC(=O)O	6.55	–
Cc1cc(-c2ccccc2)nn(CCCC(=O)O)c1=N	5.64	–
Cc1cc(-c2ccccc2)c(=N)n(CCCC(=O)O)n1	4.97	–
N=c1c2ccccc2c(-c2ccccc2)nn1Cc1cc(O)ns1	6.80	7.60
NCc1cc(O)ns1	7.72	–
